Columns and labels:
[1] = Stable metal competition assay, AuCl3; assay type: physicochemical; settings: tenfold excess to chelator, 113 h, ambient temperature
Description: (§1) To the [^197m/gHg][Hg(Tetrathiol)]^2− (prepared as described above) or radiolabeling controls (DMSO instead of the ligand) 10 µL of a 10 mM metal cocktail (solution of biologically relevant metals, ZnCl2, FeCl3, CuCl2, MgCl2 and CoCl2), 10 mM AuCl3 or 10 mM of HgCl2, in water was added. The final solution contained tenfold excess of stable metal to the chelators and 10^6-fold excess of the stable metal to ^197m/gHg in solution. The mixtures were incubated at RT over 113 h. The proportion of intact radiolabeled complex was monitored over the course of 113 h using iTLC-SG and DMSA solution (50 mM, pH 5) as the mobile phase. Under these conditions, uncomplexed ^197m/gHg^2+ resulting from stable metal transchelation traveled to the solvent front (Rf = 1) while intact [^197m/gHg][Hg(Tetrathiol)]^2− remained at the baseline (Rf = 0).

[2] = LogD7.4 shake-flask measurement (n-octanol/PBS); assay type: physicochemical; settings: n-octanol/PBS pH 7.4, shake-flask
Description: Aliquots of [^197m/gHg][Hg(Tetrathiol)]^2− (prepared as described above) (10 μL) were added to a biphasic mixture of n-octanol (700 μL) and phosphate buffered saline (PBS, 700 μL, pH 7.4). The mixture was vortexed for 2 min at ambient temperature and then separated via centrifugation (10 min, 3000 rpm). Aliquots of n-octanol (100 μL) and PBS (100 μL) were collected, and the activity in each portion was determined via gamma spectroscopy. LogD7.4 is defined as log10[(activity in n-octanol phase)/(activity in buffer phase)].

[3] = Human serum stability assay (SDS-PAGE); assay type: in vitro ADME; settings: 37 °C, 72 h
Description: To the [^197m/gHg][Hg(Tetrathiol)]^2− (prepared as described above) or radiolabeling controls (DMSO instead of the ligand) was diluted in human serum (1:1 v/v dilution), and the solutions were incubated at 37 °C over 72 h. The metal-complex stabilities were monitored over 72 h using SDS-PAGE following our previously reported protocols (Randhawa et al. [2023]; Tosato et al. [2024]). At each time point, an aliquot (10 μL) of the reaction mixture was mixed with Laemmli sample buffer (10 μL) and was directly loaded onto the SDS-PAGE gel. The SDS-PAGE was run at ambient temperature and 150 V until the dye front reached the resolving gel (1 h). Following electrophoresis, the gel was scanned with the radio-TLC scanner to determine the percentage of intact complex. The same protocol was used with free [^197m/gHg]Hg^2+ and the ^197m/gHg^2+-complexes diluted in phosphate-buffered saline (PBS) (5 µL; 1:1 v/v dilution) to assess their electrophoretic mobility.

[4] = Stable metal competition assay, HgCl2; assay type: physicochemical; settings: tenfold excess HgCl2
Description: as §1

[5] = L-Glutathione (GSH) competition assay; assay type: physicochemical; settings: 37 °C, 72 h, 2.12 mM GSH
Description: GSH competition assay procedures closely followed those previously developed by our group (Randhawa et al. [2023]). To the [^197m/gHg][Hg(Tetrathiol)]^2− (prepared as described above) or radiolabeling controls (DMSO instead of the ligand) was added to a 50 mM L-glutathione (GSH) solution (1:22 v/v GSH:reaction solution dilution), and the mixtures were incubated at 37 °C over 72 h. The final GSH concentration was chosen to mimic in vivo conditions within cells (2.12 mM) (Dickinson and Forman [2002]). The proportion of intact radiolabeled complex was monitored over the course of 72 h using iTLC-SG and L-glutathione (50 mM) as the mobile phase. Under these conditions, uncomplexed ^197m/gHg^2+ resulting from GSH transchelation traveled to the solvent front (Rf = 1) while intact [^197m/gHg][Hg(Tetrathiol)]^2− remained at the baseline (Rf = 0).

[6] = Stable metal competition assay, biologically relevant metal cocktail; assay type: physicochemical; settings: tenfold excess to chelator, 113 h, ambient temperature
Description: as §1

## O=C(CC[S-])OCC(COC(=O)CC[S-])(COC(=O)CC[S-])COC(=O)CC[S-].[Hg+2] [[^197m/gHg]Hg-Tetrathiol]
[1]
  demetallation against AuCl3: no signs of demetallation
[2]
  logD7.4: 0.35 ± 0.1
[3]
  intact complex in human serum: 86 ± 1%
[4]; 113 h
  intact complex in competition with HgCl2: 18 ± 10%
[4]; within 2 h
  intact complex in competition with HgCl2: 71 ± 10%
[5]
  stability when challenged against GSH: no evidence of decomposition or transchelation
[6]
  demetallation against mixture of biologically relevant metals: no signs of demetallation

From article PMC12521730, “Quantitative dual-isotope preclinical SPECT/CT imaging and biodistribution of the mercury-197m/g theranostic pair with [^197m/gHg]HgCl2 and a [^197m/gHg]Hg-tetrathiol complex as a platform for radiopharmaceutical development” (EJNMMI Radiopharmacy and Chemistry, 2025)
